# Test results as given in patent US20230181598A1, “FORMULATIONS AND METHODS OF TREATING COVID-19 AND PREVENTING INFECTION WITH SARS-CoV-2” (priority 2020, published 2023).
# Values joined by “and” are separate entries in the source; they are usually repeats but may differ in a detail not shown here. Equal values may be shown once. Read-outs that look alike come from different tables or passages of the source.
# How the values were obtained:
# [1] = cited from earlier work
# [2] = system: SARS-CoV-2 (strain USA-WA1/2020); test: microbe, parasite or virus in culture; assay type: cell-based; conditions: for Average Log10 CCID50 virus per 0.2 mL: average of duplicate inserts; for Log10 Reduction in virus titer (CCID50) vs virus control / Log10 CCID50 virus per 0.2 mL: dNHBE cells
# [3] = 0.1 μM, single insert, day 5 after infection
smiles,measurement,setting,value
"CCOC(=O)C1=C(COCCN)NC(C)=C(C(=O)OC)C1c1ccccc1Cl (racemic) [Amlodipine besylate, 3-Ethyl-5-methyl (±)-2-[(2-aminoethoxy)methyl]4-(2-chlorophenyl)-1,4-dihydro-6-methyl-3,5-pyridinedicarboxylate, monobenzenesulphonate]",solubility in ethanol,[1]; ethanol,sparingly soluble
same,solubility in water,[1]; water,slightly soluble
CCOC(=O)C1=C(COCCN)NC(C)=C(C(=O)OC)C1c1ccccc1Cl (centres unmarked) [Amlodipine],Average Log10 CCID50 virus per 0.2 mL,"[2]; 0.1 μM, day 5",3.6 Log10 CCID50 per 0.2 mL
same,Log10 Reduction in virus titer (CCID50) vs virus control,"[2]; 0.1 μM, day 5",0.7 Log10
same,Log10 Reduction in virus titer (CCID50) vs virus control,"[2]; 0.1 μM, day 5, listed as amlodipine",~1 Log10
same,Log10 CCID50 virus per 0.2 mL,[2]; [3],3.7 Log10 CCID50 per 0.2 mL and 3.5 Log10 CCID50 per 0.2 mL
"CC#C[C@]1(O)CC[C@H]2[C@@H]3CCC4=CC(=O)CCC4=C3[C@@H](c3ccc(N(C)C)cc3)C[C@@]21C [Mifepristone, 11β-(4-dimethylaminophenyl)-17β-hydroxy-17α-(1-propynyl)-estra-4,9-dien-3-one]",Average Log10 CCID50 virus per 0.2 mL,"[2]; 5 μM, day 5",3.5 Log10 CCID50 per 0.2 mL
same,Log10 Reduction in virus titer (CCID50) vs virus control,"[2]; 5 μM, day 5",0.8 Log10
same,Log10 Reduction in virus titer (CCID50) vs virus control,"[2]; 5 μM, day 5, listed as mifepristone",~1 Log10
same,solubility,"[1]; acidic media, pH 1.5",~25 mg/mL
same,solubility,[1]; pH values above 2.5,less than 1 mg/mL
CCC(CC)COC(=O)[C@H](C)N[P@](=O)(OC[C@H]1O[C@@](C#N)(c2ccc3c(N)ncnn23)[C@H](O)[C@@H]1O)Oc1ccccc1 [Remdesivir],Log10 CCID50 virus per 0.2 mL,"[2]; 0.001 μM, day 5",4.0 Log10 CCID50 per 0.2 mL
same,Log10 CCID50 virus per 0.2 mL,"[2]; 0.01 μM, day 5",3.3 Log10 CCID50 per 0.2 mL
same,Log10 CCID50 virus per 0.2 mL,[2]; [3],2.7 Log10 CCID50 per 0.2 mL
same,Log10 CCID50 virus per 0.2 mL,"[2]; 1.0 μM, day 5",2.0 Log10 CCID50 per 0.2 mL
same,EC90,"[2]; Severe acute respiratory syndrome coronavirus 2, Vero 76",9 nM
same,EC90,"[2]; Severe acute respiratory syndrome coronavirus 2, Vero 76, 120 h, read-out: EC90 (concentration to reduce virus yield by 1 log10, regression analysis) (converted)",9 nM
